The results in this text go back to patent publication US10514377B2, “Method of diagnosing and therapeutically treating a patient for a traumatic brain injury” (priority 2010, dated 2019).

For the test, the system named is rats subjected to impact acceleration injury. In words: Impact acceleration injury (traumatic brain injury) in rats, GFAP immuno-fluorescence of cortex 24 hours after injury. The conditions noted are these: rat. It is filed as in vivo. The source says:
FIG. 3 through 5 represent respectively, representative photomicrographs of three groups of ten rats which have been subjected to the development of traumatic brain injury through impact by a weight under experimental conditions described hereinafter.
Low and high magnification micrographs of glial fibrillary acidic proteins (GFAP) immuno-fluorescence using a laser-scanning confocal microscope produced FIGS. 3 through 5. The GFAP antibody labels the intermediate filaments of most astrocytes in the brain. These photomicrographs, which were taken 24 hours after the animals were subjected to impact acceleration injury, show areas of cortex slightly lateral to the midline. The pial surface is at the top of the images and the midline is to the left of all images. In the sham animals shown in FIG. 3, a normal distribution of GFAP labeled astrocytes is seen, including their endfeet which surround the neurovasculature. […] There is also a patchy loss of GFAP-labeled astrocytes throughout the cortex and the vasculature shown by the arrow heads (as contrasted with the full arrows) appears damaged. It should also be noted that many of the remaining astrocytes appear to be hypertrophied. The loss of all GFAP-immunoreactivity and appearance of astrocyte hypertrophy are indicative of a neuroinflammatory response to injury.
In order to provide additional information regarding the invention, experiments were performed on animals who were subjected to the impact acceleration injury described hereinbefore, with the animals subsequently being sacrificed and the brains examined 24 hours after the injury. Tests were performed with body specimens which were urinary excretion and also with blood, either blood plasma or blood serum. In each group of ten animals, all had their urine tested and six had blood tested. With the sham animals, the mean urinary excretion values of marinobufagenin were 423±130 (SE)pgMBG/mg creatinine. With the impact acceleration injury rats, the mean urinary excretion values of marinobufagenin were […]. […] These tests confirm the evaluation of marinobufagenin in both urine and blood when an impact acceleration injury is present.

The mark [1] stands for this setting: 120 μg bolus about 90 minutes after injury, 24 hours after injury, FIG. 5.

On to `C[C@]12CC[C@H](O)C[C@H]1CC[C@@H]1[C@@H]2CC[C@]2(C)[C@@H](c3ccc(=O)oc3)C[C@H]3O[C@]132` [resibufogenin], for which, under setting [1], the GFAP immunoreactivity entry was “reduce the decrease in GFAP immunoreactivity”; the “appearance of GFAP labeled astrocytes (normal vs hypertrophied)” value is listed as “a greater proportion of GFAP labeled astrocytes have a normal, rather than a hypertrophied appearance”; the “glial scar in cortex” value is “no observed glial scar”. Moreover, the “alterations after impact acceleration injury (glial scar, patchy loss of GFAP-labeled astrocytes, damaged vasculature, astrocyte hypertrophy)” value (120 μg bolus of resibufogenin about 90 minutes after injury, cortex examined 24 hours after injury, FIG. 5 vs FIG. 4) is reported as “most of these alterations are ameliorated”.
